Key:
[1] = Tolerability (test not described); type: in vivo; conditions: compared with the reference Prazosin
[2] = system: Blutdruck der Ratte; test: Blood pressure lowering in the rat after i.v. administration; type: in vivo; conditions: i.v. 1,0 mg/kg, after 3 hours, compared with Nifedipin and Verapamil at the same dose
[3] = in vivo; conditions: mouse, iv, Maus i.v.

Row | SMILES | Verträglichkeit [1] | senkt den Blutdruck der Ratte [2] | LD50 [3] [mg/kg]
1 | CC(O)CC(=O)N1CCC(n2c(=O)[nH]c3ccccc32)CC1 (stereo not drawn) [Beispiel 1, 1-(3-Hydroxybutyryl)-4-(2-oxo-1-benzimidazolinyl)-piperidin] | wesentlich verträglicher als die Vergleichssubstanz |  | 
2 | COC(=O)C1=C(C)NC(C)=C(C(=O)OCCCN2CCC(n3c(=O)[nH]c4ccccc43)CC2)C1c1cccc([N+](=O)[O-])c1 (stereo not drawn) [Beispiel 4, 2,6-Dimethyl-3-{3-(4-(2-oxo-1-benzimidazolinyl)-1-piperidino]-propyloxy-carbonyl}-4-(3-nitro-phenyl)-5-methoxycarbonyl-1,4-dihydropyridin] |  | noch stärker als Nifedipin oder Verapamil | 128
